From patent US9169254B2, “Spiroimidazolone derivative” (Chugai Seiyaku Kabushiki Kaisha, priority 2009, dated 2015) come the findings set out here.

This assay concerns the target T1, human PTH1 receptor (Homo sapiens, UniProt Q03431).
T1 sequence (Q03431 27-593): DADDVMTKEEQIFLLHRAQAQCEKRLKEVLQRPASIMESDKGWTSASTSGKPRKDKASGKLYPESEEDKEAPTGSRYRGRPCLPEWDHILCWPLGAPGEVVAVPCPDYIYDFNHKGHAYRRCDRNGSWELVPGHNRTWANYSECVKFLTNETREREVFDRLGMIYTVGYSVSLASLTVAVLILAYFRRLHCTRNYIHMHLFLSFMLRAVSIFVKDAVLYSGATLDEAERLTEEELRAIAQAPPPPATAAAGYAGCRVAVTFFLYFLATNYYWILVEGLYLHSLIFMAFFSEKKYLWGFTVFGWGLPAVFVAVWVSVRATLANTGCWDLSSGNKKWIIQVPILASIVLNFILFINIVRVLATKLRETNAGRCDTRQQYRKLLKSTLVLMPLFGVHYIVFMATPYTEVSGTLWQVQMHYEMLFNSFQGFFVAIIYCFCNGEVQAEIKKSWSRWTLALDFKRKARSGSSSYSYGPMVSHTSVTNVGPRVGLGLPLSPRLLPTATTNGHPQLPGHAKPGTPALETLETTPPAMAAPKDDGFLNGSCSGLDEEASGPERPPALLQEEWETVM
The assay is described as follows: In vitro cAMP signal activity in HKRK-B7 cells (LLC-PK1 cells overexpressing the human PTH1 receptor). The class given is cell-based. To be noted: HKRK-B7 cells; compound at 1×10^−3 M; cAMP produced as percentage of that produced by hPTH(1-34) at 100 nM.
In the case of `Cc1cc(C(=O)N2CCC(C)(O)CC2)cc(C)c1/C=C/S(=O)(=O)N1CCC2(CC1)N=C(c1ccc(OC(C)(C)C(F)(F)F)c(C(F)(F)F)c1)NC2=O` [Compound 1197, 8-{(E)-2-[4-(4-hydroxy-4-methyl-piperidine-1-carbonyl)-2,6-dimethyl-phenyl]-ethenesulfonyl}-2-[4-(2,2,2-trifluoro-1,1-dimethyl-ethoxy)-3-trifluoromethyl-phenyl]-1,3,8-triaza-spiro[4.5]dec-1-en-4-one], the “cAMP production activity (%)” value stood at 74%.
The figure for `Cc1cc(C(=O)N2CCC(C)(O)CC2)cc(C)c1/C=C/S(=O)(=O)N1CCC2(CC1)N=C(c1ccc(OC(F)(F)F)cc1)NC2=O` [Compound 1198, 8-{(E)-2-[4-(4-hydroxy-4-methyl-piperidine-1-carbonyl)-2,6-dimethyl-phenyl]-ethenesulfonyl}-2-(4-trifluoromethoxy-phenyl)-1,3,8-triaza-spiro[4.5]dec-1-en-4-one] is 88%; for `Cc1cc(C(=O)N2CCC(C)(O)CC2)cc(C)c1/C=C/S(=O)(=O)N1CCC2(CC1)N=C(c1ccc(OCC(F)(F)C(F)F)c(C(F)(F)F)c1)NC2=O` [Compound 1199, 8-{(E)-2-[4-(4-hydroxy-4-methyl-piperidine-1-carbonyl)-2,6-dimethyl-phenyl]-ethenesulfonyl}-2-[4-(2,2,3,3-tetrafluoro-propoxy)-3-trifluoromethyl-phenyl]-1,3,8-triaza-spiro[4.5]dec-1-en-4-one] it is 77%; for `Cc1cc(C(=O)N2CCC(C)(O)CC2)cc(C)c1/C=C/S(=O)(=O)N1CCC2(CC1)N=C(c1ccc(OCC(F)(F)F)c(C(F)(F)F)c1)NC2=O` [Compound 1200, 8-{(E)-2-[4-(4-hydroxy-4-methyl-piperidine-1-carbonyl)-2,6-dimethyl-phenyl]-ethenesulfonyl}-2-[4-(2,2,2-trifluoro-ethoxy)-3-trifluoromethyl-phenyl]-1,3,8-triaza-spiro[4.5]dec-1-en-4-one] it is 73%.
The figure for `Cc1cc(C(=O)N2CCC(C)(O)CC2)cc(C)c1/C=C/S(=O)(=O)N1CCC2(CC1)N=C(c1ccc(OCC(F)(F)C(F)F)c(Cl)c1)NC2=O` [Compound 1201, 2-[3-chloro-4-(2,2,3,3-tetrafluoro-propoxy)-phenyl]-8-{(E)-2-[4-(4-hydroxy-4-methyl-piperidine-1-carbonyl)-2,6-dimethyl-phenyl]-ethenesulfonyl}-1,3,8-triaza-spiro[4.5]dec-1-en-4-one] is 77%.
For the molecule `Cc1cc(C(=O)N2CCC(C)(O)CC2)cc(C)c1/C=C/S(=O)(=O)N1CCC2(CC1)N=C(c1ccc(OCCCC(F)(F)C(F)(F)F)c(C(F)(F)F)c1)NC2=O` [Compound 1202, 8-{(E)-2-[4-(4-hydroxy-4-methyl-piperidine-1-carbonyl)-2,6-dimethyl-phenyl]-ethenesulfonyl}-2-[4-(4,4,5,5,5-pentafluoro-pentyloxy)-3-trifluoromethyl-phenyl]-1,3,8-triaza-spiro[4.5]dec-1-en-4-one], the “cAMP production activity (%)” value stood at 91%.
Then `Cc1cc(C(=O)N2CCC(C)(O)CC2)cc(C)c1/C=C/S(=O)(=O)N1CCC2(CC1)N=C(c1ccc(OCC(F)(F)C(F)(F)F)c(C(F)(F)F)c1)NC2=O` [Compound 1203, 8-{(E)-2-[4-(4-hydroxy-4-methyl-piperidine-1-carbonyl)-2,6-dimethyl-phenyl]-ethenesulfonyl}-2-[4-(2,2,3,3,3-pentafluoro-propoxy)-3-trifluoromethyl-phenyl]-1,3,8-triaza-spiro[4.5]dec-1-en-4-one], with 90%; and `Cc1cc(C(=O)N2CCC(C)(O)CC2)cc(C)c1/C=C/S(=O)(=O)N1CCC2(CC1)N=C(c1ccc(OCCCC(F)(F)F)c(C(F)(F)F)c1)NC2=O` [Compound 1204, 8-{(E)-2-[4-(4-hydroxy-4-methyl-piperidine-1-carbonyl)-2,6-dimethyl-phenyl]-ethenesulfonyl}-2-[4-(4,4,4-trifluoro-butoxy)-3-trifluoromethyl-phenyl]-1,3,8-triaza-spiro[4.5]dec-1-en-4-one], with 83%.
Then `Cc1cc(C(=O)N2CCC(C)(O)CC2)cc(C)c1/C=C/S(=O)(=O)N1CCC2(CC1)N=C(c1cccc(COc3cccc(C(F)(F)F)c3)c1)NC2=O` [Compound 1205, 8-{(E)-2-[4-(4-hydroxy-4-methyl-piperidine-1-carbonyl)-2,6-dimethyl-phenyl]-ethenesulfonyl}-2-[3-(3-trifluoromethyl-phenoxymethyl)-phenyl]-1,3,8-triaza-spiro[4.5]dec-1-en-4-one], with 83%; and `Cc1cc(C(=O)N2CCC(C)(O)CC2)cc(C)c1/C=C/S(=O)(=O)N1CCC2(CC1)N=C(c1cccc(C(C)(F)F)c1)NC2=O` [Compound 1206, 2-[3-(1,1-difluoro-ethyl)-phenyl]-8-{(E)-2-[4-(4-hydroxy-4-methyl-piperidine-1-carbonyl)-2,6-dimethyl-phenyl]-ethenesulfonyl}-1,3,8-triaza-spiro[4.5]dec-1-en-4-one], with 88%; and `Cc1cc(C(=O)N2CCC(C)(O)CC2)cc(C)c1/C=C/S(=O)(=O)N1CCC2(CC1)N=C(c1ccc(OCCCC(F)(F)C(F)(F)F)c(F)c1)NC2=O` [Compound 1207, 2-[3-fluoro-4-(4,4,5,5,5-pentafluoro-pentyloxy)-phenyl]-8-{(E)-2-[4-(4-hydroxy-4-methyl-piperidine-1-carbonyl)-2,6-dimethyl-phenyl]-ethenesulfonyl}-1,3,8-triaza-spiro[4.5]dec-1-en-4-one], with 112%.
Then `Cc1cc(C(=O)N2CCC(C)(O)CC2)cc(C)c1/C=C/S(=O)(=O)N1CCC2(CC1)N=C(c1ccc3cc[nH]c3c1)NC2=O` [Compound 1208, 8-{(E)-2-[4-(4-hydroxy-4-methyl-piperidine-1-carbonyl)-2,6-dimethyl-phenyl]-ethenesulfonyl}-2-(1H-indol-6-yl)-1,3,8-triaza-spiro[4.5]dec-1-en-4-one], with 65%.
In the case of `Cc1cc(C(=O)N2CCC(C)(O)CC2)cc(C)c1/C=C/S(=O)(=O)N1CCC2(CC1)N=C(c1ccc(C(F)(F)F)c(OC(C)(C)C(F)(F)F)c1)NC2=O` [Compound 1209, 8-{(E)-2-[4-(4-hydroxy-4-methyl-piperidine-1-carbonyl)-2,6-dimethyl-phenyl]-ethenesulfonyl}-2-[3-(2,2,2-trifluoro-1,1-dimethyl-ethoxy)-4-trifluoromethyl-phenyl]-1,3,8-triaza-spiro[4.5]dec-1-en-4-one], the “cAMP production activity (%)” value came out at 94%.
In the case of `Cc1cc(C(=O)N2CCC(C)(O)CC2)cc(C)c1/C=C/S(=O)(=O)N1CCC2(CC1)N=C(c1ccc(Cl)c(OC(C)(C)C(F)(F)F)c1)NC2=O` [Compound 1210, 2-[4-chloro-3-(2,2,2-trifluoro-1,1-dimethyl-ethoxy)-phenyl]-8-{(E)-2-[4-(4-hydroxy-4-methyl-piperidine-1-carbonyl)-2,6-dimethyl-phenyl]-ethenesulfonyl}-1,3,8-triaza-spiro[4.5]dec-1-en-4-one], the “cAMP production activity (%)” value is 86%.
